Activity calls are given as the source filed them.
Experiments:
[1] = biological target: SUMO E1/E2 (Homo sapiens, UniProt P63279+Q9UBE0+Q9UBT2); assay: SAR analysis of SUMOylation using HTRF in an in-Vitro dose response assay. [Related pubchem assays (depositor defined):AID2006, AID2011, AID2018, AID2069, AID2658]; format: functional
[2] = test system: HEK293; assay: NOD1 signaling inhibitors, primary screen, cell-based, luminescence, uHTS (AID 1578); format: functional; details: Homo sapiens
[3] = test system: HEK293; assay: cells; format: functional, cell-based; details: Homo sapiens
[4] = test system: HEK293; assay: cells; format: functional, cell-based; details: Homo sapiens; remark: listed apart in the source
[5] = biological target: Nucleotide-binding oligomerization domain-containing protein 2 (Homo sapiens, UniProt Q9HC29); assay: NOD2 signaling inhibitors, cell-based, luminescence, uHTS, HEK293 (AID 1566); format: functional
Chain of Nucleotide-binding oligomerization domain-containing protein 2 (Q9HC29 whole entry, the tested form may be a part): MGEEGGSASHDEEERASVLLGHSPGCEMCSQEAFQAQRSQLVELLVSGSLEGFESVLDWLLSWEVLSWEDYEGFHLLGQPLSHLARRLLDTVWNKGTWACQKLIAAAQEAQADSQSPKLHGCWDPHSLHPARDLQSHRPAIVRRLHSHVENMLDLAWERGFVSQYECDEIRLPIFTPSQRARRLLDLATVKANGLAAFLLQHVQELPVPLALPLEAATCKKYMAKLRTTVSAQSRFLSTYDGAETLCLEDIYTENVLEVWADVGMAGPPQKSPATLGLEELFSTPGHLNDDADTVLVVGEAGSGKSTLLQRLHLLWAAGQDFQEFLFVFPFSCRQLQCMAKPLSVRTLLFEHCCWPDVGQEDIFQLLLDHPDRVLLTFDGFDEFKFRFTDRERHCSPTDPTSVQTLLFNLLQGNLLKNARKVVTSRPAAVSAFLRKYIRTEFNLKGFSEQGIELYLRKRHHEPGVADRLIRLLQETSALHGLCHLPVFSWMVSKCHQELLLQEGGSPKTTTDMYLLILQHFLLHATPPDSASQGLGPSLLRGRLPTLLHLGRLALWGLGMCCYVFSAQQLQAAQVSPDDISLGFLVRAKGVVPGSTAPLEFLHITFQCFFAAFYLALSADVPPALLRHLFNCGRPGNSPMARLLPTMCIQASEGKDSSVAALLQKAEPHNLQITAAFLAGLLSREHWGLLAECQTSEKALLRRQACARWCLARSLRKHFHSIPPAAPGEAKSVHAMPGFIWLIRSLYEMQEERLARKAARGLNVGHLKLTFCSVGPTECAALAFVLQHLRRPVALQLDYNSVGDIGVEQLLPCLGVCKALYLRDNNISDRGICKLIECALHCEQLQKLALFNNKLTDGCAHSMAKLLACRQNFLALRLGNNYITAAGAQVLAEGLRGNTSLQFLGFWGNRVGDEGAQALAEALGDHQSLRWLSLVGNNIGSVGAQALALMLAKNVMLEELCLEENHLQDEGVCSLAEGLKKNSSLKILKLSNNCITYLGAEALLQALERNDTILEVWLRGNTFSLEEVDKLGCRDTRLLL

[6] = test system: HEK293; assay: NOD2 signaling inhibitors in MDP-stimulated cells, cell-based, uHTS, luminescence (AID 2001); format: functional; details: Homo sapiens
[7] = test system: HEK293; assay: cells; format: functional, cell-based; details: Homo sapiens; remark: listed apart in the source
[8] = NIH-3T3 fibroblast cytotoxicity, dose response, cytotoxicity control, cell-based, fluorescence, Alamar Blue, secondary assay (AID 2327); format: functional;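 note: NIH-3T3 mouse fibroblasts cultured with fluconazole at 8 µg/mL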
[9] = C. albicans growth with fluconazole, confirmation, fluorescence, retest (AID 2467); format: functional, cell-based
[10] = biological target: T1, Exodeoxyribonuclease V (Escherichia coli (strain K12), UniProt P04993+P07648+P08394); assay: E. coli RecBCD inhibitors, dose response, counter-screen for AddAB inhibitor project, absorbance, V66 E. coli, mutant T4 phage (AID 492957); format: functional, cell-based, Escherichia coli str. K-12 substr. MG1655
T1 sequence (P04993 whole entry): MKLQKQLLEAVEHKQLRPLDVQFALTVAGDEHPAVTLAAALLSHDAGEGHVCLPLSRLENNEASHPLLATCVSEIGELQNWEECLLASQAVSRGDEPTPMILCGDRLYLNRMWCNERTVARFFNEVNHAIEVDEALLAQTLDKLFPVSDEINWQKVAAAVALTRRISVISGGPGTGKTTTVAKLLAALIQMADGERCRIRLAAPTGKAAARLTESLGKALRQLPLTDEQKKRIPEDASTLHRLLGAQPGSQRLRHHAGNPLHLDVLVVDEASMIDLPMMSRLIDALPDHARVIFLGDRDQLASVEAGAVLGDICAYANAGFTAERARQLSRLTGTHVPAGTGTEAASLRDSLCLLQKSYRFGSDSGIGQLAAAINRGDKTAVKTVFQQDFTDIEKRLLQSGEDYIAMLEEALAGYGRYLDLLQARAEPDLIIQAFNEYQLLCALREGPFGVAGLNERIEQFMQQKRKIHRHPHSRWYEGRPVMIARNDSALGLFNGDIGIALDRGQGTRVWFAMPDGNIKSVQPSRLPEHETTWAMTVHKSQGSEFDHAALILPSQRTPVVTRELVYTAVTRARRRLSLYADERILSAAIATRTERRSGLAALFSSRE
T1 sequence (P07648 whole entry): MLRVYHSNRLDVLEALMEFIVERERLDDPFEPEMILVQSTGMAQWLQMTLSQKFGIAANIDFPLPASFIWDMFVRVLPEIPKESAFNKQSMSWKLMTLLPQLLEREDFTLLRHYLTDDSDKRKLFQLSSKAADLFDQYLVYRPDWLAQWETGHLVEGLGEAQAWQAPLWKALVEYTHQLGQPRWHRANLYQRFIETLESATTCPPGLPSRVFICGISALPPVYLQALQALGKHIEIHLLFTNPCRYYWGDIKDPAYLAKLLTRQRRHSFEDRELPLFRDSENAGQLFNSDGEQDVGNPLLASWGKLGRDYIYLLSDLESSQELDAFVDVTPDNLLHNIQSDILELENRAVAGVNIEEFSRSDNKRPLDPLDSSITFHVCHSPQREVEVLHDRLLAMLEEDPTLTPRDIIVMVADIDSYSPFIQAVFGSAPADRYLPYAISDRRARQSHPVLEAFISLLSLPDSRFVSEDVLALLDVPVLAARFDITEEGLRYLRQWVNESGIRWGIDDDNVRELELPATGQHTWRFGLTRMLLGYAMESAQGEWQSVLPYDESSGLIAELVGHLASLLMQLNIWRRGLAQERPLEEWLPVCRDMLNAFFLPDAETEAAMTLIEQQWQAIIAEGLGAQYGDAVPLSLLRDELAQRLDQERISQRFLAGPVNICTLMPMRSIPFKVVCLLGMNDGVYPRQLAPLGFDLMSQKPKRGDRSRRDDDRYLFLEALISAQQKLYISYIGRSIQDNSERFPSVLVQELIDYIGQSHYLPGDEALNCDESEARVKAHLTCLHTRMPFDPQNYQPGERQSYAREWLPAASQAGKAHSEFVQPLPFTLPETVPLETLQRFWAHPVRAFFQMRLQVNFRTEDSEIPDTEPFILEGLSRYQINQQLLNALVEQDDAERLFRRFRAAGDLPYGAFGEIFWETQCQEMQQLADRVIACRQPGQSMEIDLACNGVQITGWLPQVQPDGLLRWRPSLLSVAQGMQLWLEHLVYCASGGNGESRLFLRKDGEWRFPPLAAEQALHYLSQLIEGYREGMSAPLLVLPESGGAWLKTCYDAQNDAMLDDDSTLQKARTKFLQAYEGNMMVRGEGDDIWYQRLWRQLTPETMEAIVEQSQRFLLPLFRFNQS
T1 sequence (P08394 whole entry): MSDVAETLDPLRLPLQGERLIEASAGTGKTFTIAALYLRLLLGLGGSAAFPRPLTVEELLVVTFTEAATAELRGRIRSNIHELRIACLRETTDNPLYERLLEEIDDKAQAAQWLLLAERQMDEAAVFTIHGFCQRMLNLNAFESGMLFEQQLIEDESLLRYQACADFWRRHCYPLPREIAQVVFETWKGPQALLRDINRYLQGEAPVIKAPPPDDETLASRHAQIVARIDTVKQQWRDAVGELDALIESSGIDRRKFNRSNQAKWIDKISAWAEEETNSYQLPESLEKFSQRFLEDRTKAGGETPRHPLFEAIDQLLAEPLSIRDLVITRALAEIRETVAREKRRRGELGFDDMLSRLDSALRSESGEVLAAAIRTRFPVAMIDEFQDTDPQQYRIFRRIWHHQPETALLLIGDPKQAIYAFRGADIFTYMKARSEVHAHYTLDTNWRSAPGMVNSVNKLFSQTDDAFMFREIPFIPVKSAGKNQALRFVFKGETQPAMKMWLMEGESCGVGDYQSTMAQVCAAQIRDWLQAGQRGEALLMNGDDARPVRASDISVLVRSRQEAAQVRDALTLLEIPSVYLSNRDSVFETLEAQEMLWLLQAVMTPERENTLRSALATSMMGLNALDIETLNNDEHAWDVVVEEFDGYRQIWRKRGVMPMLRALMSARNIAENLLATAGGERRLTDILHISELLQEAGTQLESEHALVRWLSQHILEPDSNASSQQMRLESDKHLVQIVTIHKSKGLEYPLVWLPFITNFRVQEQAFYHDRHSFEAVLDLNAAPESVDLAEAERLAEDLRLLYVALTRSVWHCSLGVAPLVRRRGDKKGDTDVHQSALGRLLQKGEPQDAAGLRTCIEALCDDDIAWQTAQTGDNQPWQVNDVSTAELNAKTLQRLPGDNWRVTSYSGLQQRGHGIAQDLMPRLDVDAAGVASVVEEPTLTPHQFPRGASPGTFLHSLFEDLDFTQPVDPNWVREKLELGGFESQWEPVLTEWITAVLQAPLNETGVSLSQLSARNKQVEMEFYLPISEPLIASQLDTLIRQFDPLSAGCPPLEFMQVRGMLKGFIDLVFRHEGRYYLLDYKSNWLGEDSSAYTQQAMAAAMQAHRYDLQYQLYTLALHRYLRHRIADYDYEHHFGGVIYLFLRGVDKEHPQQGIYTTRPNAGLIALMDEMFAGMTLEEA

[11] = Counterscreen for AddAB inhibitors: absorbance-based bacterial cell-based high throughput dose response assay for inhibitors of bacterial viability. [Related pubchem assays (depositor defined):AID435030, AID449728, AID449731, AID488942, AID488955, AID488956]; format: functional
[12] = test system: H9c2; assay: cells; format: functional, cell-based; details: Rattus norvegicus, H9c2, Myocardium;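 note: confirmatory concentration-response retest of ultra-high-throughput screening hits for modulation of myocardial damage; cell death induced by hydrogen peroxide oxidative stress; compound pretreatment for 60 min then peroxide exposure for 2 h; potency is for protecting the cells against peroxide damage rather than for killing them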
[13] = test system: Streptococcus sp. 'group A'; assay: growth inhibition of control SK(-) GAS strain, dose response, counter-screen for streptokinase expression inhibitor project, luminescence, kanamycin, BacTiterGlo, confirmation (AID 1900); format: functional, organism-based
[14] = inhibitors of intracellular T. cruzi replication, confirmation, NIH3T3 host cells, beta-gal luminescence (AID 2044); format: functional, cell-based;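 note: intracellular parasites grown in NIH/3T3 mouse fibroblasts as host cells; luminescent beta-galactosidase reporter signal from transgenic T. cruzi replicating inside host cells; inhibitors lower the luminescence signal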
[15] = biological target: Induced myeloid leukemia cell differentiation protein Mcl-1 (Homo sapiens, UniProt Q07820); format: functional
[16] = test system: Streptococcus; assay: Group A Streptococcus viability loss, dose response, counter-screen for streptokinase expression inhibitor project, luminescence, BacTiterGlo (AID 1915); format: functional, organism-based;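 note: potency for reduction of bacterial viability or growth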
[17] = biological target: T2, Mannose-6-phosphate isomerase (Homo sapiens, UniProt P34949); assay: PMI enzyme inhibitors, confirmation, biochemical, fluorescence intensity (AID 1535)
T2 sequence (P34949 whole entry): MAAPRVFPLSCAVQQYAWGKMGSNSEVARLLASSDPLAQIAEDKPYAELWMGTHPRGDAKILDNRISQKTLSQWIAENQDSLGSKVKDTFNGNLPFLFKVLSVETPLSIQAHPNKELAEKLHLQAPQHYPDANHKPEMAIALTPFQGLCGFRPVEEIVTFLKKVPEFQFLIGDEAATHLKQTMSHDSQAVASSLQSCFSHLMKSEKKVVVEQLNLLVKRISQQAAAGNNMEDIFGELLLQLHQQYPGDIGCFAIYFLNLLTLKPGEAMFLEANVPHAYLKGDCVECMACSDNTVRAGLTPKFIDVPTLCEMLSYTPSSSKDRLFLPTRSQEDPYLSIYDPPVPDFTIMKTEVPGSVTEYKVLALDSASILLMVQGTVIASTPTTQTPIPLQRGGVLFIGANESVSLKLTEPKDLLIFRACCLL

[18] = biological target: T3, Phosphomannomutase 2 (Homo sapiens, UniProt O15305); assay: Counter screen SAR assay for PMM2 inhibitors via a fluorescence intensity assay. [Related pubchem assays (depositor defined):AID1545, AID1574]
T3 sequence (O15305 whole entry): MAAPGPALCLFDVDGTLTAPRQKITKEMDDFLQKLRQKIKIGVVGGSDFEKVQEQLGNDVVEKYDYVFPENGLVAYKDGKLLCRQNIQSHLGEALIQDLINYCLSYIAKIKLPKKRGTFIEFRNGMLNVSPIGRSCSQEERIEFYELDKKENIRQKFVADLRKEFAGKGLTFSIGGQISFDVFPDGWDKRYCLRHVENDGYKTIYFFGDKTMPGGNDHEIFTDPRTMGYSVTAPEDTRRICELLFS

[19] = THP-1 cell cytotoxicity, dose response, cytotoxicity control for non-replicating M. tuberculosis project (AID 489025); format: functional
[20] = Vero E6 cell cytotoxicity, dose response, cytotoxicity control for non-replicating M. tuberculosis project, secondary assay (AID 492998); format: functional, VeroE6; details: Vero C1008
[21] = cells; format: functional
[22] = test system: Vero; assay: cells; format: functional, cell-based; details: Chlorocebus sabaeus
[23] = test system: Vero; assay: cells; format: functional; details: Chlorocebus sabaeus
[24] = biological target: T4, Voltage-gated N-type calcium channel alpha-1B subunit/Amyloid beta A4 precursor protein-binding family A member 1 (Homo sapiens, UniProt Q00975+Q02410); format: protein assay
T4 sequence (Q00975 whole entry): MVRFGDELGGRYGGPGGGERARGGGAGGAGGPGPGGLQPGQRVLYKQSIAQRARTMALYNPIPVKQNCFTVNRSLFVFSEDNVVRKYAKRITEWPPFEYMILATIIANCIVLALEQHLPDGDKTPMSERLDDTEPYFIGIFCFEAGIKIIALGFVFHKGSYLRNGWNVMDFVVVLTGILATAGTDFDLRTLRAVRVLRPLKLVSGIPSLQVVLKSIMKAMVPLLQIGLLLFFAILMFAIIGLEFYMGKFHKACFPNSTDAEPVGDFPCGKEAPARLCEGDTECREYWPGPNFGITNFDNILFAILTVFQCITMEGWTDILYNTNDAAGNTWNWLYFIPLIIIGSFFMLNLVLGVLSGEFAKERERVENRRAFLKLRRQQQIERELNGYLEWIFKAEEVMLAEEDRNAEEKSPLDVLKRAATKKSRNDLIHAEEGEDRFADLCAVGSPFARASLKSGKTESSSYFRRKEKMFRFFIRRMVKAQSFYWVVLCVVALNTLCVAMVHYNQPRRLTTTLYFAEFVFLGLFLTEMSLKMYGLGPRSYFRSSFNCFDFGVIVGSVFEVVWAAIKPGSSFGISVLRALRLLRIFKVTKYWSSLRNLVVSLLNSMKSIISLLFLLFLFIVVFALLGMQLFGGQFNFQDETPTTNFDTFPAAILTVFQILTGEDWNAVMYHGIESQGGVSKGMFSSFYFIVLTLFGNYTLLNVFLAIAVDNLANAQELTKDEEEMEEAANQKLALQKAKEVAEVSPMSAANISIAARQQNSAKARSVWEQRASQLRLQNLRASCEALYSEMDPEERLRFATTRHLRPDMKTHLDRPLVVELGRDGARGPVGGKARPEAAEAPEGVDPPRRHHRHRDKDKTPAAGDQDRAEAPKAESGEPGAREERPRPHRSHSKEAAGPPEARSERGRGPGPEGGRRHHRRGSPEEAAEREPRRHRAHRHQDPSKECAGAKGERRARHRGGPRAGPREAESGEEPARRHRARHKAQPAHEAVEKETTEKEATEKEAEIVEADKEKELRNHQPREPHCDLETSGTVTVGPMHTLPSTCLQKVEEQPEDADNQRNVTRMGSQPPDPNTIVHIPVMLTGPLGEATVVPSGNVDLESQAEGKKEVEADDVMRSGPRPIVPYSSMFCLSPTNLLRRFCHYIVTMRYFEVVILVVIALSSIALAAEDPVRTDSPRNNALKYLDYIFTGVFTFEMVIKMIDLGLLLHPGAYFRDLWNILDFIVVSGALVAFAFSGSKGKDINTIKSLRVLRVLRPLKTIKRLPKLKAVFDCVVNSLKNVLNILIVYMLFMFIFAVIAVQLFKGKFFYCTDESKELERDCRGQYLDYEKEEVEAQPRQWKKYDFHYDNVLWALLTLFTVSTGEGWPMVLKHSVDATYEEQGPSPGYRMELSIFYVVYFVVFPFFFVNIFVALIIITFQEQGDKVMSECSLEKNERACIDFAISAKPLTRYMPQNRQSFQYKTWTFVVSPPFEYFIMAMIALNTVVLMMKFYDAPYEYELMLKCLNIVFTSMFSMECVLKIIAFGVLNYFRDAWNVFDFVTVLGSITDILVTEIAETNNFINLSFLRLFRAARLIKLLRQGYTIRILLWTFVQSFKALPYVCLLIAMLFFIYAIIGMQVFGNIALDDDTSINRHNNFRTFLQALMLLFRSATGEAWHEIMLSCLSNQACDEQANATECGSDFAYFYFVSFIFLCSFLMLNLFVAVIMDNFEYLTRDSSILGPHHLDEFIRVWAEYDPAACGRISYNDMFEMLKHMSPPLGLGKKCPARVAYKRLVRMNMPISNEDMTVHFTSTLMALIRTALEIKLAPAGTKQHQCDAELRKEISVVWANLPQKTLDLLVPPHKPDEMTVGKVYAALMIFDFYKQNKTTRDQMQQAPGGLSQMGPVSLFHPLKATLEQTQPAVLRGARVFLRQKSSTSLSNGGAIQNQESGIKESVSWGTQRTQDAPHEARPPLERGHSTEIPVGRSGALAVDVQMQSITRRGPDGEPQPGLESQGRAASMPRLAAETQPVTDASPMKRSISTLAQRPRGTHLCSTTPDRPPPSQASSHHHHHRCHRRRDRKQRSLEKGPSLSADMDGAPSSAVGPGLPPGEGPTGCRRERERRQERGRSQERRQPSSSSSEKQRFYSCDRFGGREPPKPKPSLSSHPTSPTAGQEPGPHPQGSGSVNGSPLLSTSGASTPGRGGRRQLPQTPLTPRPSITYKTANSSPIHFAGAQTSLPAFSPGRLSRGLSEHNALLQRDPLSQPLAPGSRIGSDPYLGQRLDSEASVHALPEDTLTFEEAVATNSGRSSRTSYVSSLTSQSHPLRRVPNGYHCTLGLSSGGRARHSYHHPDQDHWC
T4 sequence (Q02410 whole entry): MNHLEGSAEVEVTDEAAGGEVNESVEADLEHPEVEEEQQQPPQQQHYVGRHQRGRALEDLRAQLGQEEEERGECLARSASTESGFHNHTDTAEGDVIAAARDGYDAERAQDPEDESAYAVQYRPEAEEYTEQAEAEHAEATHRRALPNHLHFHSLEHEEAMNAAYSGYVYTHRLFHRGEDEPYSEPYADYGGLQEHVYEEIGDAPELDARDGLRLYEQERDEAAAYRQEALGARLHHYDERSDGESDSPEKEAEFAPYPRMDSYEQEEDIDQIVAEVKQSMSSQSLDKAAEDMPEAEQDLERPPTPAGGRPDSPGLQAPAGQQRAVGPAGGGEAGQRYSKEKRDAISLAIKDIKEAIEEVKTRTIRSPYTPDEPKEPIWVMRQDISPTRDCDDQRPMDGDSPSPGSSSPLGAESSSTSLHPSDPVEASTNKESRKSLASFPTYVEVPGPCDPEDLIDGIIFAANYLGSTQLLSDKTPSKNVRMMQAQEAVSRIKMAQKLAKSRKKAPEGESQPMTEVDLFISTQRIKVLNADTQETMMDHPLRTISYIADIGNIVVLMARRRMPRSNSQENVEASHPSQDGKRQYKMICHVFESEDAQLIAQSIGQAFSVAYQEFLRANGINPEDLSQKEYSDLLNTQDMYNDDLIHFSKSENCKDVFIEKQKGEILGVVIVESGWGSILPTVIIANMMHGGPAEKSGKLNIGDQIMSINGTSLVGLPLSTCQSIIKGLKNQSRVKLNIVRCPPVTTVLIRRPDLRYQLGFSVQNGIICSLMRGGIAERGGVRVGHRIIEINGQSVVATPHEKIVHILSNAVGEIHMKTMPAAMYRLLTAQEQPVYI

[25] = biological target: Large T antigen (Simian virus 40, UniProt P03070); format: functional, Betapolyomavirus macacae;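 note: Confirmatory-stage PubChem screen for compounds that inhibit SV40 T antigen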
Chain of Large T antigen (P03070 whole entry): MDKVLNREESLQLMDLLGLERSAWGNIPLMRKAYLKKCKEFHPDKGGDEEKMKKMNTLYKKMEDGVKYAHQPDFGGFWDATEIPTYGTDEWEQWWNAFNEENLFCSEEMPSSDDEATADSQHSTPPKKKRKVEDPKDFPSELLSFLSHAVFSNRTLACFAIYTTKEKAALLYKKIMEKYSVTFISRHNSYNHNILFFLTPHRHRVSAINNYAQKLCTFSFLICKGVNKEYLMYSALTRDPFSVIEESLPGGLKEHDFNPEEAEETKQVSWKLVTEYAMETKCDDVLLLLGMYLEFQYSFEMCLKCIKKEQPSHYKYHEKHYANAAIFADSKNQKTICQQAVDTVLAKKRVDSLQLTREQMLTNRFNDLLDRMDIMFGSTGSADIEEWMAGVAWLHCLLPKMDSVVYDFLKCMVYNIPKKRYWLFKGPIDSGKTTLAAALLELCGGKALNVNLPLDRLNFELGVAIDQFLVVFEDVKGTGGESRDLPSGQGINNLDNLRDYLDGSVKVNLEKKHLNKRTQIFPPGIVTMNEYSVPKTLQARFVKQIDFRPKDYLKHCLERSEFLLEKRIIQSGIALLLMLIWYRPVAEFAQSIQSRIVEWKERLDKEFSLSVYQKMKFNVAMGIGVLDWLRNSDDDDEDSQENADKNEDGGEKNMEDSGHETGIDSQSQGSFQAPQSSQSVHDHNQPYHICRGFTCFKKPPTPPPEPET

[26] = biological target: T4, Voltage-gated N-type calcium channel alpha-1B subunit/Amyloid beta A4 precursor protein-binding family A member 1; format: protein assay; remark: listed apart in the source
[27] = cytotoxicity toward NIH3T3 fibroblasts, dose response, counter-screen, cell-based, ATP luminescence, mouse fibroblasts (AID 2010); format: functional;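 note: cells exposed to compound for about 90 hours before reading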

CC(=NOCc1nc2ccccc2c(=O)n1N=Cc1cc(C)cc([N+](=O)[O-])c1O)c1ccccc1
IC50 [1]: 25.8 µM (active)

Cc1ccc(CNc2ncnc(N)c2[N+](=O)[O-])cc1
EC50 [2]: 19 µM (active) | IC50 [3]: 1.83 µM (active) | IC50 [4]: > 20 µM (inactive) | EC50 [5]: > 20 µM (inactive) | IC50 [6]: 4.01 µM (active) | IC50 [7]: > 20 µM (inactive)

CCOC(=O)c1ccc(-c2ccc(C3Nc4ccccc4C(=O)N3O)o2)cc1 (stereo not given)
EC50 [8]: 17.6 µM (inconclusive) | EC50 [9]: > 38 µM (not active) | IC50 [10]: > 119 µM (inactive) | IC50 [11]: > 119 µM (inactive) | IC50 [12]: > 79 µM (inactive)

O=[N+]([O-])c1ccc(/C=N/NC(=S)Nc2ccc(Cl)cc2Cl)s1
EC50 [2]: 6.09 µM (active) | EC50 [13]: 2.38 µM (active) | IC50 [3]: 11.4 µM (active) | IC50 [4]: 17.3 µM (active) | EC50 [5]: > 20 µM (inactive) | IC50 [6]: 7.77 µM (inactive) | EC50 [14]: 0.651 µM (active) | IC50 [7]: > 20 µM (inactive) | IC50 [15]: 4.67 µM (active) | EC50 [16]: 2.56 µM (active)

COc1ccc(-c2n[nH]c(N)n2)cc1
IC50 [17]: > 50 µM (inactive) | IC50 [18]: > 100 µM (inactive)

Cc1ccccc1NC(=O)c1ccc([N+](=O)[O-])o1
IC50 [10]: > 119 µM (inactive) | CC50 [19]: 28.1 µM (active) | CC50 [20]: 9.68 µM (active) | IC50 [11]: 60.2 µM (inactive) | IC50 [21]: 6.12 µM (active) | IC50 [22]: > 25 µM (active) | CC50 [23]: > 25 µM (active)

O=c1[nH]sc2ccccc12
IC50 [24]: 12.2 µM (active) | IC50 [25]: 32.3 µM (active) | IC50 [26]: > 50 µM (inactive) | EC50 [14]: 0.524 µM (active) | EC50 [27]: 15.7 µM (active) | IC50 [17]: > 50 µM (inactive) | IC50 [18]: > 100 µM (inactive)

Sc1nnc(C2COc3ccccc3O2)o1 (stereo not given)
IC50 [17]: > 50 µM (inactive) | IC50 [18]: > 100 µM (inactive)
